Reference: ChEMBL document CHEMBL1201862, “PubChem BioAssay data set” (2004)
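Protocol summary: plate cells (96-well), add compound at 5 concentrations, incubate 48 h, interpolate endpoints linearly. Here, GI50 denotes the concentration required for 50% inhibition of growth.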 Calls of active or inactive are those of the source. Cut-off read from the data, not from the text of the source: active = GI50 up to about 1.1 µM and inactive = higher.

Assays:
Assay in all cases: NCI anticancer screen, dose series, 48 h
DMS-114 = test system: DMS-114
M19-MEL = test system: M19-MEL
DMS-273 = test system: DMS-273
KM-20L2 = test system: KM-20L2
LXFL 529 = test system: LXFL 529
XF498 = test system: XF498
SNB-78 = test system: SNB-78
RXF 631 = test system: RXF 631
HOP-18 = test system: HOP-18

Structure (SMILES): O=C(O)/C(Cl)=C(\Cl)C(=O)c1ccccc1
- GI50 (DMS-114): > 100 µM (inactive)
- GI50 (M19-MEL): > 100 µM (inactive)
- GI50 (DMS-273): > 100 µM (inactive)
- GI50 (KM-20L2): > 100 µM (inactive)
- GI50 (LXFL 529): > 100 µM (inactive)
- GI50 (XF498): > 100 µM (inactive)
- GI50 (SNB-78): > 100 µM (inactive)

Structure (SMILES): CC(=O)c1cc([N+](=O)[O-])ccc1OCC(=O)O
- GI50 (DMS-114): > 100 µM (inactive)
- GI50 (M19-MEL): > 100 µM (inactive)
- GI50 (DMS-273): > 100 µM (inactive)
- GI50 (KM-20L2): > 100 µM (inactive)
- GI50 (LXFL 529): > 100 µM (inactive)
- GI50 (RXF 631): > 100 µM (inactive)
- GI50 (SNB-78): > 100 µM (inactive)

Structure (SMILES): CCOc1ccc2nc(NC(=O)C(=O)C(C(=O)c3ccccc3-c3ccccc3)C3OC(=O)c4ccccc43)sc2c1 (stereo not drawn)
- GI50 (DMS-114): 14.8 µM (inactive)
- GI50 (M19-MEL): 19.1 µM (inactive)
- GI50 (DMS-273): 23.1 µM (inactive)
- GI50 (KM-20L2): 22.4 µM (inactive)
- GI50 (LXFL 529): 17.4 µM (inactive)
- GI50 (XF498): 21.3 µM (inactive)
- GI50 (SNB-78): 18.6 µM (inactive)

Structure (SMILES): CC(C)c1cccc2sc(NC(=O)C(=O)CC(=O)c3ccc(F)cc3)nc12
- GI50 (DMS-114): > 100 µM (inactive)
- GI50 (M19-MEL): > 100 µM (inactive)
- GI50 (DMS-273): > 100 µM (inactive)
- GI50 (KM-20L2): > 100 µM (inactive)
- GI50 (LXFL 529): > 100 µM (inactive)
- GI50 (XF498): > 100 µM (inactive)
- GI50 (RXF 631): > 100 µM (inactive)
- GI50 (SNB-78): > 100 µM (inactive)

Structure (SMILES): CC1=C(C(=O)NCc2ccccc2)C(c2ccc(C3C(C(=O)NCc4ccccc4)=C(C)NC(C)=C3C(=O)NCc3ccccc3)cc2)C(C(=O)NCc2ccccc2)=C(C)N1
- GI50 (DMS-114): 12.6 µM (inactive)
- GI50 (M19-MEL): 8.39 µM (inactive)
- GI50 (DMS-273): 9.42 µM (inactive)
- GI50 (KM-20L2): 13.9 µM (inactive)
- GI50 (LXFL 529): 4.58 µM (inactive)
- GI50 (XF498): 14.9 µM (inactive)
- GI50 (HOP-18): 37.5 µM (inactive)
- GI50 (SNB-78): 9.46 µM (inactive)

Structure (SMILES): CC(Oc1ccc(OCC2CCCCC2)cc1)C(=O)N(CCO)CCO (stereo not drawn)
- GI50 (DMS-114): > 100 µM (inactive)
- GI50 (M19-MEL): > 100 µM (inactive)
- GI50 (DMS-273): > 100 µM (inactive)
- GI50 (LXFL 529): > 100 µM (inactive)
- GI50 (XF498): > 100 µM (inactive)
- GI50 (HOP-18): > 100 µM (inactive)
- GI50 (SNB-78): > 100 µM (inactive)

Structure (SMILES): Clc1ccc(C[P+](c2ccccc2)(c2ccccc2)c2ccccc2)cc1Cl
- GI50 (DMS-114): 1.52 µM (inactive)
- GI50 (M19-MEL): 1.79 µM (inactive)
- GI50 (DMS-273): 2.01 µM (inactive)
- GI50 (KM-20L2): 2.94 µM (inactive)
- GI50 (XF498): 1.32 µM (inactive)
- GI50 (HOP-18): 2.1 µM (inactive)
- GI50 (SNB-78): 25.8 µM (inactive)

Structure (SMILES): CCCCC1(C2c3ccccc3Oc3ccccc32)C(=O)N(c2ccccc2)N(c2ccccc2)C1=O
- GI50 (M19-MEL): > 100 µM (inactive)
- GI50 (DMS-273): 47 µM (inactive)
- GI50 (KM-20L2): 22.5 µM (inactive)
- GI50 (XF498): > 31.9 µM (inactive)
- GI50 (HOP-18): > 100 µM (inactive)
- GI50 (SNB-78): 37.1 µM (inactive)

Structure (SMILES): C=C(C=O)[C@@H]1C2OC(=O)C(=C)[C@@H]2CC(O)[C@@]1(C)CC (stereo partly drawn)
- GI50 (DMS-114): 14.8 µM (inactive)
- GI50 (M19-MEL): 5.48 µM (inactive)
- GI50 (KM-20L2): 12.2 µM (inactive)
- GI50 (LXFL 529): 3.08 µM (inactive)
- GI50 (HOP-18): 26.1 µM (inactive)
- GI50 (RXF 631): 19.2 µM (inactive)
- GI50 (SNB-78): 6.17 µM (inactive)

Structure (SMILES): NCCCNCCSP(=O)(O)O [AMIFOSTINE]
- GI50 (DMS-114): > 750 µM (inactive)
- GI50 (M19-MEL): 514 µM (inactive)
- GI50 (DMS-273): > 750 µM (inactive)
- GI50 (KM-20L2): > 719 µM (inactive)
- GI50 (XF498): > 422 µM (inactive)
- GI50 (HOP-18): > 750 µM (inactive)
- GI50 (SNB-78): > 750 µM (inactive)

Structure (SMILES): Cn1c(/C=C/CO)c(CO)c2c1C(=O)C=C(N1CC1)C2=O [APAZIQUONE]
- GI50 (DMS-114): < 0.01 µM (active)
- GI50 (M19-MEL): < 0.01 µM (active)
- GI50 (DMS-273): < 0.01 µM (active)
- GI50 (KM-20L2): 0.0147 µM (active)
- GI50 (XF498): < 0.01 µM (active)
- GI50 (HOP-18): < 0.01 µM (active)
- GI50 (SNB-78): 0.2 µM (active)
